Test results published in US20200024278A1, “COMPOSITION COMPRISING ANTIBIOTIC COMPOUND AND AN HETEROCYCLIC COMPOUND AND THEIR USE IN PREVENTING OR TREATING BACTERIAL INFECTIONS” (MUTABILIS, priority 2016, published 2020).

Legend:
Assay in all cases: MIC, broth microdilution (CLSI), substance alone or ATB combined with compound at 4 or 8 μg/mL
PAE UFR90 = assay type: cell-based, P. aeruginosa; conditions: PAE UFR90
Summary of the method: (§1)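 Broth microdilution; ca-MHB; 5·10^5 CFU/mL; 35° C, 16-20 h; compound alone or fixed 4/8 μg/mL with antibiotic series; endpoint = no visible growth.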

PAE UFR48 = assay type: cell-based, P. aeruginosa; conditions: PAE UFR48
Summary of the method: as §1

ECL P99 = assay type: cell-based, E. cloacae; conditions: ECL P99
Summary of the method: as §1

ECO 190317 = assay type: cell-based, E. coli; conditions: ECO 190317
Summary of the method: as §1

ECO UFR39 = assay type: cell-based, E. coli; conditions: ECO UFR39
Summary of the method: as §1

SAU 29213 = assay type: cell-based, S. aureus; conditions: SAU 29213
Summary of the method: as §1

CN(C)c1cc(NC(=O)CNC(C)(C)C)c(O)c2c1C[C@H]1C[C@H]3[C@H](N(C)C)C(O)=C(C(N)=O)C(=O)[C@@]3(O)C(O)=C1C2=O [TGC]
MIC ATB combined with Example 11 @8 μg/ml (PAE UFR90; with Example 11 at 8 μg/ml): 16 mg/L | MIC ATB combined with Example 12 @8 μg/ml (PAE UFR90; with Example 12 at 8 μg/ml): 16 mg/L | MIC ATB combined with Example 13 @8 μg/ml (PAE UFR90; with Example 13 at 8 μg/ml): 16 mg/L | MIC ATB combined with Example 14 @8 μg/ml (PAE UFR90; with Example 14 at 8 μg/ml): 16 mg/L | MIC ATB combined with Example 15 @4 μgml (PAE UFR90; with Example 15 at 4 μg/ml): 16 mg/L | MIC ATB combined with Example 16 @4 μg/ml (PAE UFR90; with Example 16 at 4 μg/ml): 16 mg/L | MIC ATB alone (PAE UFR48; antibiotic alone): 32 mg/L | MIC ATB combined with Example 1 @8 μg/ml (PAE UFR48; with Example 1 @8 μg/ml): <0.031 mg/L | MIC ATB combined with Example 1 @8 μg/ml (PAE UFR48; with Example 1 at 8 μg/ml): <0.031 mg/L | MIC ATB combined with Example 7 @8 μgml (PAE UFR48; with Example 7 at 8 μg/ml): >32 mg/L | MIC ATB combined with Example 9 @4 μg/ml (PAE UFR48; with Example 9 @4 μg/ml): 32 mg/L | MIC ATB combined with Example 9 @4 μg/ml (PAE UFR48; with Example 9 at 4 μg/ml): 32 mg/L | MIC ATB combined with Example 11 @8 μg/ml (PAE UFR48; with Example 11 at 8 μg/ml): 32 mg/L | MIC ATB combined with Example 12 @8 μg/ml (PAE UFR48; with Example 12 at 8 μg/ml): 32 mg/L | MIC ATB combined with Example 13 @8 μg/ml (PAE UFR48; with Example 13 at 8 μg/ml): 32 mg/L | MIC ATB combined with Example 14 @8 μg/ml (PAE UFR48; with Example 14 at 8 μg/ml): 32 mg/L | MIC ATB combined with Example 15 @4 μgml (PAE UFR48; with Example 15 at 4 μg/ml): 32 mg/L | MIC ATB combined with Example 16 @4 μg/ml (PAE UFR48; with Example 16 at 4 μg/ml): 32 mg/L | MIC ATB alone (ECL P99; antibiotic alone): 0.5 mg/L | MIC ATB combined with Example 1 @8 μg/ml (ECL P99; with Example 1 @8 μg/ml): <0.031 mg/L | MIC ATB combined with Example 1 @8 μg/ml (ECL P99; with Example 1 at 8 μg/ml): <0.031 mg/L | MIC ATB combined with Example 7 @8 μgml (ECL P99; with Example 7 at 8 μg/ml): 0.25 mg/L | MIC ATB combined with Example 9 @4 μg/ml (ECL P99; with Example 9 @4 μg/ml): <0.031 mg/L | MIC ATB combined with Example 9 @4 μg/ml (ECL P99; with Example 9 at 4 μg/ml): <0.031 mg/L | MIC ATB combined with Example 11 @8 μg/ml (ECL P99; with Example 11 at 8 μg/ml): <0.031 mg/L | MIC ATB combined with Example 12 @8 μg/ml (ECL P99; with Example 12 at 8 μg/ml): <0.031 mg/L | MIC ATB combined with Example 13 @8 μg/ml (ECL P99; with Example 13 at 8 μg/ml): 0.25 mg/L | MIC ATB combined with Example 14 @8 μg/ml (ECL P99; with Example 14 at 8 μg/ml): <0.031 mg/L | MIC ATB combined with Example 15 @4 μgml (ECL P99; with Example 15 at 4 μg/ml): <0.031 mg/L | MIC ATB combined with Example 16 @4 μg/ml (ECL P99; with Example 16 at 4 μg/ml): <0.031 mg/L | MIC ATB alone (ECO 190317; antibiotic alone): 0.25 mg/L | MIC ATB combined with Example 1 @8 μg/ml (ECO 190317; with Example 1 @8 μg/ml): <0.031 mg/L | MIC ATB combined with Example 1 @8 μg/ml (ECO 190317; with Example 1 at 8 μg/ml): <0.031 mg/L | MIC ATB combined with Example 7 @8 μgml (ECO 190317; with Example 7 at 8 μg/ml): <0.031 mg/L | MIC ATB combined with Example 9 @4 μg/ml (ECO 190317; with Example 9 @4 μg/ml): <0.031 mg/L | MIC ATB combined with Example 9 @4 μg/ml (ECO 190317; with Example 9 at 4 μg/ml): <0.031 mg/L | MIC ATB combined with Example 11 @8 μg/ml (ECO 190317; with Example 11 at 8 μg/ml): <0.031 mg/L | MIC ATB combined with Example 12 @8 μg/ml (ECO 190317; with Example 12 at 8 μg/ml): <0.031 mg/L | MIC ATB combined with Example 13 @8 μg/ml (ECO 190317; with Example 13 at 8 μg/ml): <0.031 mg/L | MIC ATB combined with Example 14 @8 μg/ml (ECO 190317; with Example 14 at 8 μg/ml): <0.031 mg/L | MIC ATB combined with Example 15 @4 μgml (ECO 190317; with Example 15 at 4 μg/ml): <0.031 mg/L | MIC ATB combined with Example 16 @4 μg/ml (ECO 190317; with Example 16 at 4 μg/ml): <0.031 mg/L | MIC ATB alone (ECO UFR39; antibiotic alone): 0.5 mg/L | MIC ATB combined with Example 1 @8 μg/ml (ECO UFR39; with Example 1 @8 μg/ml): <0.031 mg/L | MIC ATB combined with Example 1 @8 μg/ml (ECO UFR39; with Example 1 at 8 μg/ml): <0.031 mg/L | MIC ATB combined with Example 7 @8 μgml (ECO UFR39; with Example 7 at 8 μg/ml): <0.031 mg/L | MIC ATB combined with Example 9 @4 μg/ml (ECO UFR39; with Example 9 @4 μg/ml): <0.031 mg/L | MIC ATB combined with Example 9 @4 μg/ml (ECO UFR39; with Example 9 at 4 μg/ml): <0.031 mg/L | MIC ATB combined with Example 11 @8 μg/ml (ECO UFR39; with Example 11 at 8 μg/ml): <0.031 mg/L | MIC ATB combined with Example 12 @8 μg/ml (ECO UFR39; with Example 12 at 8 μg/ml): <0.031 mg/L | MIC ATB combined with Example 13 @8 μg/ml (ECO UFR39; with Example 13 at 8 μg/ml): <0.031 mg/L | MIC ATB combined with Example 14 @8 μg/ml (ECO UFR39; with Example 14 at 8 μg/ml): <0.031 mg/L | MIC ATB combined with Example 15 @4 μgml (ECO UFR39; with Example 15 at 4 μg/ml): <0.031 mg/L | MIC ATB combined with Example 16 @4 μg/ml (ECO UFR39; with Example 16 at 4 μg/ml): <0.031 mg/L | MIC ATB alone (SAU 29213; antibiotic alone): 0.25 mg/L | MIC ATB combined with Example 1 @8 μg/ml (SAU 29213; with Example 1 @8 μg/ml): 0.125 mg/L | MIC ATB combined with Example 1 @8 μg/ml (SAU 29213; with Example 1 at 8 μg/ml): 0.125 mg/L | MIC ATB combined with Example 7 @8 μgml (SAU 29213; with Example 7 at 8 μg/ml): 0.25 mg/L | MIC ATB combined with Example 9 @4 μg/ml (SAU 29213; with Example 9 @4 μg/ml): <0.031 mg/L | MIC ATB combined with Example 9 @4 μg/ml (SAU 29213; with Example 9 at 4 μg/ml): <0.031 mg/L | MIC ATB combined with Example 11 @8 μg/ml (SAU 29213; with Example 11 at 8 μg/ml): <=0.031 μg/mL | MIC ATB combined with Example 12 @8 μg/ml (SAU 29213; with Example 12 at 8 μg/ml): <0.031 mg/L | MIC ATB combined with Example 13 @8 μg/ml (SAU 29213; with Example 13 at 8 μg/ml): 0.063 mg/L | MIC ATB combined with Example 14 @8 μg/ml (SAU 29213; with Example 14 at 8 μg/ml): <0.031 mg/L | MIC ATB combined with Example 15 @4 μgml (SAU 29213; with Example 15 at 4 μg/ml): <0.031 mg/L | MIC ATB combined with Example 16 @4 μg/ml (SAU 29213; with Example 16 at 4 μg/ml): <0.031 mg/L
